This passage reports IC50 results from patent US7153855B2, “Pyrazolopyridinyl pyrimidine therapeutic compounds” (SmithKline Beecham Corporation, priority 2001, dated 2006).

pIC50: −log10 of the molar value.

The assay deals with HSV-1. The assay is described as follows: HSV-1 infection of Vero 76 cells, viral DNA detected by hybridization capture (chemiluminescence). The format is cell-based. The settings on record: Human alphaherpesvirus 1; HSV-1 in Vero 76 cells, MOI=0.001, compounds incubated 40–48 hours at 37° C.; read-out: IC50. An excerpt:
In the following example, “MEM” means Minimal Essential Media; “FBS” means Fetal Bovine Serum; “NP40” and “Igepal” are detergents; “MOI” means Multiplicity of Infection; “NaOH” means sodium hydroxide; “MgCl2” means magnesium chloride; “dATP” means deoxyadenosine 5′ triphosphate; “dUTP” means deoxyuridine 5′ triphosphate; “dCTP” means dexoxycytidine 5′ triphosphate; “dGTP” means deoxyguanosine 5′ triphosphate; “GuSCN” means Guanidinium thiocyanate; “EDTA” means ethylenediamine tetraacetic acid; “TE” means Tris-EDTA; “SCC” means sodium chloride/sodium citrate; “APE” means a solution of ammonia acetate, ammonia phosphate, EDTA; “PBS” means phosphate buffered saline; and “HRP” means horseradish peroxidase.
Vero 76 cells were maintained in MEM with Earle's salts, L-glutamine, 8% FBS (Hyclone, A-1111-L) and 100 units/mL Penicillin-100 μg/mL Streptomycin. For assay conditions, FBS was reduced to 2%. Cells are seeded into 96-well tissue culture plates at a density of 5×10^4 cells/well after being incubated for 45 min at 37° C. in the presence of HSV-1 or HSV-2 (MOI=0.001). Test compounds are added to the wells and the plates are incubated at 37° C. for 40–48 hours. Cell lysates are prepared as follows: media was removed and replaced with 150 μL/well 0.2 N NaOH with 1% Igepal CA 630 or NP-40. Plates were incubated up to 14 days at room temperature in a humidified chamber to prevent evaporation.
For the detection probe, a gel-purified, digoxigenin-labeled, 710-bp PCR fragment of the HSV UL-15 sequence was utilized. PCR conditions included 0.5 μM primers, 180 μM dTTP, 20 μM dUTP-digoxigenin (Boehringer Mannheim 1558706), 200 μM each of dATP, dCTP, and dGTP, 1×PCR Buffer II (Perkin Elmer), 2.5 mM MgCl2, 0.025 units/μL of AmpliTaq Gold polymerase (Perkin Elmer), and 5 ng of gel-purified HSV DNA per 100 μL Extension conditions were 10 min at 95° C., followed by 30 cycles of 95° C. for 1 min, 55° C. for 30 sec, and 72° C. for 2 min. The amplification was completed with a 10-min incubation at 72° C. Primers were selected to amplify a 728 bp probe spanning a section of the HSV1 UL15 open reading frame (nucleotides 249–977). Single-stranded transcripts were purified with Promega M13 Wizard kits. The final product was mixed 1:1 with a mixture of 6 M GuSCN, 100 mM EDTA and 200 μg/mL herring sperm DNA and stored at 4° C.
The capture DNA plasmid (HSV UL13 region in pUC) was linearized by cutting with Xba I, denatured for 15 min at 95° C. and diluted immediately into Reacti-Bind DNA Coating Solution (Pierce, 17250, diluted 1:1 with TE buffer, pH 8) at 1 ng/μL 75 μL/well were added to Corning (#3922 or 9690) white 96-well plates and incubated at room temperature for at least 4 hrs before washing twice with 300 μL/well 0.2×SSC/0.05% Tween-20 (SSC/T buffer). The plates were then incubated overnight at room temperature with 150 μL/well 0.2 N NaOH, 1% IGEPAL and 10 μg/mL herring sperm DNA.
Twenty-seven (27) μL of cell lysate was combined with 45 μL of hybridization solution (final concentration: 3M GuSCN, 50 mM EDTA, 100 μg/ml salmon sperm DNA, 5×Denhardt's solution, 0.25×APE, and 5 ng of the digoxigenin-labeled detection probe). APE is 1.5 M NH4-acetate, 0.15 M NH4H2 phosphate, and 5 mM EDTA adjusted to pH 6.0. Mineral oil (50 μL) was added to prevent evaporation. The hybridization plates were incubated at 95° C. for 10 minutes to denature the DNA, then incubated at 42° C. overnight. The wells were washed 6× with 300 μL/well SSC/T buffer then incubated with 75 μL/well anti-digoxigenin-HRP-conjugated antibody (Boehringer Mannheim 1207733, 1:5000 in TE) for 30 min at room temperature. The wells were washed 6× with 300 μL/well with PBS/0.05% Tween-20 before 75 μL/well SuperSignal LBA substrate (Pierce) was added. The plates were incubated at room temperature for 30 minutes and chemiluminescence was measured in a Wallac Victor reader.
The following results were obtained for HSV-1.
As usually defined, the pIC50 is the IC50 on a negative log10 scale, so that one unit is a factor of ten. Turning to `COc1cccc(-c2nn3c(NC4CCCC4)cccc3c2-c2ccnc(NC3CCCC3)n2)c1` [Example 51, N-Cyclopentyl-3-[2-(cyclopentylamino)-4-pyrimidinyl]-2-(3-methoxyphenyl)pyrazolo[1,5-a]pyridin-7-amine], the negative-log IC50 (pIC50) is 6.68.
Next, `COc1cccc(-c2nn3c(NC(C)C)cccc3c2-c2ccnc(NC3CCCC3)n2)c1` [Example 52, 3-[2-(Cyclopentylamino)-4-pyrimidinyl]-N-isopropyl-2-(3-methoxyphenyl)pyrazolo[1,5-a]pyridin-7-amine]: 6.25; `COc1cccc(-c2nn3c(N(C)C)cccc3c2-c2ccnc(NC3CCCC3)n2)c1` [Example 53, 3-[2-(Cyclopentylamino)-4-pyrimidinyl]-2-(3-methoxyphenyl)-N,N-dimethylpyrazolo[1,5-a]pyridin-7-amine]: 5.96; `Oc1cccc(-c2nn3c(NC4CCCC4)cccc3c2-c2ccnc(NC3CCCC3)n2)c1` [Example 54, 3-{7-(Cyclopentylamino)-3-[2-(cyclopentylamino)-4-pyrimidinyl]pyrazolo[1,5-a]pyridin-2-yl}phenol]: 6.19.
For `c1cc(OCC2CC2)cc(-c2nn3c(NC4CCCC4)cccc3c2-c2ccnc(NC3CCCC3)n2)c1` [Example 55, N-Cyclopentyl-3-[2-(cyclopentylamino)-4-pyrimidinyl]-2-[3-(cyclopropylmethoxy)phenyl]pyrazolo[1,5-a]pyridin-7-amine], the negative logarithm of the IC50 (pIC50) was 7.00.
Next, `Fc1cccc(-c2nn3c(NC4CCCC4)cccc3c2-c2ccnc(NC3CCCC3)n2)c1` [Example 56, N-Cyclopentyl-3-[2-(cyclopentylamino)-4-pyrimidinyl]-2-(3-fluorophenyl)pyrazolo[1,5-a]pyridin-7-amine]: 6.70.
As to `Clc1cccc(-c2nn3c(NC4CCCC4)cccc3c2-c2ccnc(NC3CCCC3)n2)c1` [Example 57, 2-(3-Chlorophenyl)-N-cyclopentyl-3-[2-(cyclopentylamino)-4-pyrimidinyl]pyrazolo[1,5-a]pyridin-7-amine], the negative logarithm of the IC50 (pIC50) was 6.70.
`COc1ccc(-c2nn3c(NC4CCCC4)cccc3c2-c2ccnc(NC3CC3)n2)cc1` [Example 58, N-Cyclopentyl-3-[2-(cyclopropylamino)-4-pyrimidinyl]-2-(4-methoxyphenyl)pyrazolo[1,5-a]pyridin-7-amine]: the pIC50 is 6.40.
With `COc1ccc(-c2nn3c(NCCN4CCOCC4)cccc3c2-c2ccnc(NC3CCCC3)n2)cc1` [Example 59, 3-[2-(Cyclopentylamino)-4-pyrimidinyl]-2-(4-methoxyphenyl)-N-[2-(4-morpholinyl)ethyl]pyrazolo[1,5-a]pyridin-7-amine], the pIC50 is 6.40.
In the case of `COc1ccc(-c2nn3c(NC4CC4)cccc3c2-c2ccnc(NC3CCCC3)n2)cc1` [Example 60, 3-[2-(Cyclopentylamino)-4-pyrimidinyl]-N-cyclopropyl-2-(4-methoxyphenyl)pyrazolo[1,5-a]pyridin-7-amine], the negative logarithm of the IC50 (pIC50) is 6.40.
As to `COc1ccc(-c2nn3c(N4CCOCC4)cccc3c2-c2ccnc(NC3CCCC3)n2)cc1` [Example 61, N-Cyclopentyl-4-[2-(4-methoxyphenyl)-7-(4-morpholinyl)pyrazolo[1,5-a]pyridin-3-yl]-2-pyrimidinamine], the pIC50 was 6.70.
Take `COCCNc1cccc2c(-c3ccnc(NC4CCCC4)n3)c(-c3ccc(OC)cc3)nn12` [Example 62, 3-[2-(Cyclopentylamino)-4-pyrimidinyl]-N-(2-methoxyethyl)-2-(4-methoxyphenyl)pyrazolo[1,5-a]pyridin-7-amine]: the pIC50 is 7.00.
Next, `COc1ccc(-c2nn3c(N4CCOCC4)cccc3c2-c2ccnc(NC3CC3)n2)cc1` [Example 63, N-Cyclopropyl-4-[2-(4-methoxyphenyl)-7-(4-morpholinyl)pyrazolo[1,5-a]pyridin-3-yl]-2-pyrimidinamine]: 5.92.
As to `COCCNc1cccc2c(-c3ccnc(NC4CC4)n3)c(-c3ccc(OC)cc3)nn12` [Example 64, 3-[2-(Cyclopropylamino)-4-pyrimidinyl]-N-(2-methoxyethyl)-2-(4-methoxyphenyl)pyrazolo[1,5-a]pyridin-7-amine], the negative-log IC50 (pIC50) was 6.52.
Regarding `COc1ccc(-c2nn3c(NCCN4CCOCC4)cccc3c2-c2ccnc(NC3CC3)n2)cc1` [Example 65, 3-[2-(Cyclopropylamino)-4-pyrimidinyl]-2-(4-methoxyphenyl)-N-[2-(4-morpholinyl)ethyl]pyrazolo[1,5-a]pyridin-7-amine], the pIC50 was 6.30.
As to `COc1ccc(-c2nn3c(NC4CC4)cccc3c2-c2ccnc(NC3CC3)n2)cc1` [Example 66, N-Cyclopropyl-3-[2-(cyclopropylamino)-4-pyrimidinyl]-2-(4-methoxyphenyl)pyrazolo[1,5-a]pyridin-7-amine], the pIC50 was 5.89.
The same measure for `Oc1ccc(-c2nn3c(NC4CC4)cccc3c2-c2ccnc(NC3CCCC3)n2)cc1` [Example 67, 4-[3-[2-(Cyclopentylamino)-4-pyrimidinyl]-7-(cyclopropylamino)pyrazolo[1,5-a]pyridin-2-yl]phenol]: 6.52; for `Oc1ccc(-c2nn3c(NC4CCCC4)cccc3c2-c2ccnc(NC3CC3)n2)cc1` [Example 68, 4-{7-(Cyclopentylamino)-3-[2-(cyclopropylamino)-4-pyrimidinyl]-pyrazolo[1,5-a]pyridin-2-yl}phenol]: 5.92; for `Oc1ccc(-c2nn3c(NC4CC4)cccc3c2-c2ccnc(NC3CC3)n2)cc1` [Example 69, 4-{7-(Cyclopropylamino)-3-[2-(cyclopropylamino)-4-pyrimidinyl]-pyrazolo[1,5-a]pyridin-2-yl}phenol]: 5.64.
With `c1cc(NC2CC2)n2nc(-c3ccc(OCC4CC4)cc3)c(-c3ccnc(NC4CCCC4)n3)c2c1` [Example 70, 3-[2-(Cyclopentylamino)-4-pyrimidinyl]-N-cyclopropyl-2-[4-(cyclopropylmethoxy)phenyl]pyrazolo[1,5-a]pyridin-7-amine], the negative logarithm of the IC50 (pIC50) was 6.22.
Consider `C=CCOc1ccc(-c2nn3c(NC4CCCC4)cccc3c2-c2ccnc(NC3CC3)n2)cc1` [Example 71, 2-[4-(Allyloxy)phenyl]-N-cyclopentyl-3-[2-(cyclopropylamino)-4-pyrimidinyl]pyrazolo[1,5-a]pyridin-7-amine], for which the negative logarithm of the IC50 (pIC50) is 6.30.
As to `c1cc(NC2CC2)n2nc(-c3ccc(OCC4CC4)cc3)c(-c3ccnc(NC4CC4)n3)c2c1` [Example 72, N-Cyclopropyl-3-[2-(cyclopropylamino)-4-pyrimidinyl]-2-[4-(cyclopropylmethoxy)phenyl]pyrazolo[1,5-a]pyridin-7-amine], the pIC50 is 5.85.
As for `C=CCOc1ccc(-c2nn3c(NC4CC4)cccc3c2-c2ccnc(NC3CC3)n2)cc1` [Example 73, 2-[4-(Allyloxy)phenyl]-N-cyclopropyl-3-[2-(cyclopropylamino)-4-pyrimidinyl]pyrazolo[1,5-a]pyridin-7-amine], the negative-log IC50 (pIC50) was 5.70.
As for `CCCCNc1nccc(-c2c(-c3ccc(N4CCOCC4)cc3)nn3c(NCCCC)cccc23)n1` [Example 75, N-Butyl-3-[2-(butylamino)pyrimidin-4-yl]-2-(4-morpholin-4-ylphenyl)pyrazolo[1,5-a]pyridin-7-amine], the negative logarithm of the IC50 (pIC50) was 4.57.
